From patent US11753395B2 (Kinnate Biopharma Inc., priority 2021, dated 2023) come the findings set out here.

pEC50, pIC50: −log10 of the molar value.

The target in one assay is T1, MET (Homo sapiens, UniProt P08581).
T1 construct: purchased Carna Biosciences 08-151
In words: MET Mobility Shift Assay. As to conditions: biochemical assay IC50; 100 μM ATP, 60 minute kinase reaction. Put shortly: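 IC50s come from inhibition of substrate-to-phosphopeptide conversion, read by electrophoretic mobility shift. Reaction: 100 μM ATP, 1.5 μM 5-FAM peptide, 0.625 nM MET, 10 mM MgCl2, 60 min, after a 30 min room-temperature enzyme pre-incubation, quenched with EDTA.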

Another assay concerns the target T2, Ba/F3-TPR-MET cells (Homo sapiens, UniProt P08581).
T2 construct: fused on or other part: P12270 (Nucleoprotein TPR)
In words: CellTiter-Glo Cell Viability Assay, Ba/F3-TPR-MET. The assay is classed as cell-based. As to conditions: 72 hours. Put shortly:
(§1)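 IC50 values come from curve-fitted luminescence. Viable-cell ATP was read by CellTiter-Glo 2.0 after a 72 h, 37 °C incubation of 3000 TPR-MET or D1228N-mutant Ba/F3 cells per well. Compounds were tested as a 9-point, 3-fold series with 0.1% DMSO final.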

In a further assay the target is T3, MET D1228N (Homo sapiens, UniProt P08581, D1228N).
T3 construct: purchased Signalchem M52-12IG
In words: MET D1228N Mobility Shift Assay. The following applies: biochemical assay IC50; 100 μM ATP, 60 minute kinase reaction. The gist of the method:
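Microfluidic electrophoresis quantified phosphorylated versus unphosphorylated 5-FAM-KKKKEEIYFFF peptide (1.5 μM) after a 60 min reaction with 100 μM ATP. MET D1228N (0.313 nM) in 50 mM HEPES, 10 mM MgCl2, 2 mM DTT was preincubated 30 min; IC50 fitted to conversion inhibition.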

Assay [1] deals with T4, Ba/F3-TPR-MET-D1228N cells (Homo sapiens, UniProt P08581, D1228N, cells depend on it).
T4 construct: fused on or other part: P12270 (Nucleoprotein TPR)
In words: CellTiter-Glo Cell Viability Assay, Ba/F3-TPR-MET-D1228N. The assay is classed as cell-based. As to conditions: 72 hours. Put shortly: as §1

T3 sequence (P08581 25-1390 D1228N): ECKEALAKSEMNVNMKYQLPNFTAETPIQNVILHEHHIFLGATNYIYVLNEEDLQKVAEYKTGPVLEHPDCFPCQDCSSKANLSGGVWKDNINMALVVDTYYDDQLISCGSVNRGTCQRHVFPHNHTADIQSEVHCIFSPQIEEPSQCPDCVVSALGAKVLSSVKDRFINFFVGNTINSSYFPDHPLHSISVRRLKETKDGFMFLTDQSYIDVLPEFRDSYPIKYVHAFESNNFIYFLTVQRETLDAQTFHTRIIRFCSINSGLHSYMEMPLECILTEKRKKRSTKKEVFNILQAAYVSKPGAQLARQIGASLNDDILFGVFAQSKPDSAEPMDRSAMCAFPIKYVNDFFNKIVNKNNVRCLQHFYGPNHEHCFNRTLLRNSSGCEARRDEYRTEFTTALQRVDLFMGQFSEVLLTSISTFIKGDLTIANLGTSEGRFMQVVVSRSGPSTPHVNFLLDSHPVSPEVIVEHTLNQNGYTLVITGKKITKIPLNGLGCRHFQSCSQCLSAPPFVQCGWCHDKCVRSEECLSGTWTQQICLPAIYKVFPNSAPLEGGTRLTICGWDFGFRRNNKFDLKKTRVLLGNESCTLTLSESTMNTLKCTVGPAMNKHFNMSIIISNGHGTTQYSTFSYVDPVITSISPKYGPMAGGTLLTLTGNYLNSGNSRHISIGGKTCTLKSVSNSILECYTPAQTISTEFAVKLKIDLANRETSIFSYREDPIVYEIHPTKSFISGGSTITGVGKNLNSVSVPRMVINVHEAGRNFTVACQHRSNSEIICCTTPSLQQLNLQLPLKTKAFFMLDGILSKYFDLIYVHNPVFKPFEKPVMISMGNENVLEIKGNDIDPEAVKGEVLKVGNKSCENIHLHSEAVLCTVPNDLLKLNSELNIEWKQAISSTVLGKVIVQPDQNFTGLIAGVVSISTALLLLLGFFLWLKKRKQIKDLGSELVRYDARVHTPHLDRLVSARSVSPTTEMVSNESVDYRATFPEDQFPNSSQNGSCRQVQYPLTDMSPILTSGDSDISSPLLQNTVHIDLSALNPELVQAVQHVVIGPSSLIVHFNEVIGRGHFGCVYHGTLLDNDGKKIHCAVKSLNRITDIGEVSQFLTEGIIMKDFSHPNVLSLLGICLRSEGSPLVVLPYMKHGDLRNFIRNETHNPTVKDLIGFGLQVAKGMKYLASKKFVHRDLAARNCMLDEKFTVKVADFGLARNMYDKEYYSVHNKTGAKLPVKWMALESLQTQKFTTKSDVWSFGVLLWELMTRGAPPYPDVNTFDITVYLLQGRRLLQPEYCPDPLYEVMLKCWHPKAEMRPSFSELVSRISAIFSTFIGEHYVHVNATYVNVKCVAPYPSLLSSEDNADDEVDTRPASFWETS
T2 sequence (P08581 whole entry, change not shown, the tested form may be a part): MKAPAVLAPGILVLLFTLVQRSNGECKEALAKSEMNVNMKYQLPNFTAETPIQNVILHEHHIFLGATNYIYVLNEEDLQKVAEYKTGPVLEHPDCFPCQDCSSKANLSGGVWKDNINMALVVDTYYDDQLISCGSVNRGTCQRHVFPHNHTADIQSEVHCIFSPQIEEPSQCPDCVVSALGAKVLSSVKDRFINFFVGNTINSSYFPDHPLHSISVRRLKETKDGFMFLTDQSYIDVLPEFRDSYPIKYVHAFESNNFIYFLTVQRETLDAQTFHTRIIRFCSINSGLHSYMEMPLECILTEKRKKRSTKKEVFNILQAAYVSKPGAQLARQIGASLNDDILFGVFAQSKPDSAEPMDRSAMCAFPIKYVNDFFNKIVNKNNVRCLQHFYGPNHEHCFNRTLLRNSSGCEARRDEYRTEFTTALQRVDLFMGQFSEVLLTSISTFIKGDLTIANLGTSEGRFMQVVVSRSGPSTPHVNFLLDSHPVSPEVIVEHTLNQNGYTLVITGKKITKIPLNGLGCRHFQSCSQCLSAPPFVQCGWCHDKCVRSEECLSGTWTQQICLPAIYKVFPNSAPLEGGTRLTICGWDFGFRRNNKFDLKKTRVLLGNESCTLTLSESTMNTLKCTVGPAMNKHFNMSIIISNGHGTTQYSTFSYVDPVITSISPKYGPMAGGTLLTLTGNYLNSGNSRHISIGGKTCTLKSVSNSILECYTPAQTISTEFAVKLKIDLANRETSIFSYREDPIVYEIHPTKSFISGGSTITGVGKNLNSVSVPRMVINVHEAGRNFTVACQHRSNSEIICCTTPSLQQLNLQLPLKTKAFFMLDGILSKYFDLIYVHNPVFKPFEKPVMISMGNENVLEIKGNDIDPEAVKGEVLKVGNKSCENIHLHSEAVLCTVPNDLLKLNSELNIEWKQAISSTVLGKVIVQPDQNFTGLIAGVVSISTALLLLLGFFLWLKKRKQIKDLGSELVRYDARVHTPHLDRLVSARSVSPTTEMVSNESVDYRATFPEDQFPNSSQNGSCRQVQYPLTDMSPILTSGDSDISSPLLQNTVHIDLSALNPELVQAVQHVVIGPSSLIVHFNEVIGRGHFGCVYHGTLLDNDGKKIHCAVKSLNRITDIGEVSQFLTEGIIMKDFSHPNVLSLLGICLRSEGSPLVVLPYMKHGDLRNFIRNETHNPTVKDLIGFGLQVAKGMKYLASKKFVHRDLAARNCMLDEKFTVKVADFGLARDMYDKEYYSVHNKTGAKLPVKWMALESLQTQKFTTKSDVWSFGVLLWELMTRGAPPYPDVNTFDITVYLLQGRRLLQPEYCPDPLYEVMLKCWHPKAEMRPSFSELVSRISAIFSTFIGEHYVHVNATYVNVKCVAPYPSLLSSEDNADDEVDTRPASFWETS
T1 sequence (P08581 25-1390): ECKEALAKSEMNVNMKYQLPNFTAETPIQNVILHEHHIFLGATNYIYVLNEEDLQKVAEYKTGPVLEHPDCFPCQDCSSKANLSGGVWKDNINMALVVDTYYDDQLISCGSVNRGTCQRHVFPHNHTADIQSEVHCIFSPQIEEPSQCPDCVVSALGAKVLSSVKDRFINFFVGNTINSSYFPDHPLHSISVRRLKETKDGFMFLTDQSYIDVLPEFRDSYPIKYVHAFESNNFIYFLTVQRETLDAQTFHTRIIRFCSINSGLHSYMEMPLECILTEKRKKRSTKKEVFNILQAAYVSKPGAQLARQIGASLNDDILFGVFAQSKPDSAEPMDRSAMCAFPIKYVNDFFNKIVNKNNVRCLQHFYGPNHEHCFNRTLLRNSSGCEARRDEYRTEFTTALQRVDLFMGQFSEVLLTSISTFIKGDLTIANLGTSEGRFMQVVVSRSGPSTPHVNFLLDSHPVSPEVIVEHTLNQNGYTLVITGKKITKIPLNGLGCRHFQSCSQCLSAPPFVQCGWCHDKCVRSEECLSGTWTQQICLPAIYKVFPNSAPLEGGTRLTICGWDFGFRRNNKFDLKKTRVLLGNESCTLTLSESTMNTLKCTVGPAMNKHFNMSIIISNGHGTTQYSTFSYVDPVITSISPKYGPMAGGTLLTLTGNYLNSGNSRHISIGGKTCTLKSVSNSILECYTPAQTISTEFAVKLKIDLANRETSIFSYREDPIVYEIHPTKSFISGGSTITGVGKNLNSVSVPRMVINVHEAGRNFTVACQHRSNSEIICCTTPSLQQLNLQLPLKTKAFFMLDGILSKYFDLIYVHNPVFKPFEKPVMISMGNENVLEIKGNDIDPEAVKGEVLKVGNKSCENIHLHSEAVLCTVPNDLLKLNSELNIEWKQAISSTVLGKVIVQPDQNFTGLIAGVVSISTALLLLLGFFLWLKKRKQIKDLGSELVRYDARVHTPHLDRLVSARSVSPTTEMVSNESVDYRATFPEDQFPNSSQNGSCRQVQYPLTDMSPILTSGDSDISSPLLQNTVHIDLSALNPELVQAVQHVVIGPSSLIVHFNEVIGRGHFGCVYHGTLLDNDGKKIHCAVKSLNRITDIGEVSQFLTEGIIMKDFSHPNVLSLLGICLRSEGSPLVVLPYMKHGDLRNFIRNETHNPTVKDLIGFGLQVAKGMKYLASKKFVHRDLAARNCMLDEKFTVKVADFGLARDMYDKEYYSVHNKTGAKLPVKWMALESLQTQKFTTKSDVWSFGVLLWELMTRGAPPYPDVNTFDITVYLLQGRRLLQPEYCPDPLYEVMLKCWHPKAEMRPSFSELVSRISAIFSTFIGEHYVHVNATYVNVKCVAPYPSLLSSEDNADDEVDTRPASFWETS

Consider `CNCCOc1cc2nccc(Oc3c(F)cc(NC(=O)c4cnccc4O[C@@H]4CCOC4)cc3F)c2cc1OC` [Example 70, N-[3,5-difluoro-4-({6-methoxy-7-[2-(methylamino)ethoxy]quinolin-4-yl}oxy)phenyl]-4-[(3R)-oxolan-3-yloxy]pyridine-3-carboxamide], for which the negative-log IC50 (pIC50) on MET and on MET D1228N was not below 7.00 each time. The pEC50 (at Ba/F3-TPR-MET cells; in assay [1]) was 6.00 to 7.00 in each case.

As for `COc1cc(OC2CC2)c(C(=O)Nc2cc(F)c(Oc3ccnc4cc(OCCO)c(OC)cc34)c(F)c2)cn1` [Example 111, 4-cyclopropoxy-N-(3,5-difluoro-4-((7-(2-hydroxyethoxy)-6-methoxyquinolin-4-yl)oxy)phenyl)-6-methoxypyridine-3-carboxamide], the negative-log IC50 (pIC50) on MET and at MET D1228N was not below 7.00 throughout. Further, the pEC50 (at Ba/F3-TPR-MET cells; in assay [1]) was not below 7.00 each time.

`CNCCCOc1cc2nccc(Oc3c(F)cc(NC(=O)c4cnccc4OC4CC4)cc3F)c2cc1OC` [Example 84, 4-cyclopropoxy-N-(3,5-difluoro-4-((6-methoxy-7-(3-(methylamino)propoxy)quinolin-4-yl)oxy)phenyl)pyridine-3-carboxamide]: the negative-log IC50 (pIC50) on MET and at MET D1228N was not below 7.00 throughout. Further, the negative logarithm of the EC50 (pEC50) was 6.00 to 7.00 on Ba/F3-TPR-MET cells and not below 7.00 in assay [1].

On to `COc1cc2nccc(Oc3c(F)cc(NC(=O)c4cnccc4OC4CC4)c(F)c3F)c2cc1OC` [Example 92, 4-cyclopropoxy-N-{4-[(6,7-dimethoxyquinolin-4-yl)oxy]-2,3,5-trifluorophenyl}pyridine-3-carboxamide], for which the pIC50 at MET and at MET D1228N was not below 7.00 throughout. Further, the negative-log EC50 (pEC50) (on Ba/F3-TPR-MET cells; in assay [1]) was 6.00 to 7.00 each time.

For `CNCCOc1cc2nccc(Oc3c(F)cc(NC(=O)c4cnccc4OC4CC4)cc3F)c2cc1OC` [Example 54, 4-cyclopropoxy-N-[3,5-difluoro-4-({6-methoxy-7-[2-(methylamino)ethoxy]quinolin-4-yl}oxy)phenyl]pyridine-3-carboxamide], the pIC50 at MET and on MET D1228N was not below 7.00 in each case. The pEC50 (at Ba/F3-TPR-MET cells; in assay [1]) was not below 7.00 each time.

Regarding `CNCCOc1ccc2c(Oc3c(F)cc(NC(=O)c4cnccc4OC4CC4)cc3F)ccnc2c1` [Example 87, 4-cyclopropoxy-N-[3,5-difluoro-4-({7-[2-(methylamino)ethoxy]quinolin-4-yl}oxy)phenyl]pyridine-3-carboxamide], the pIC50 at MET and on MET D1228N was not below 7.00 throughout. Further, the negative-log EC50 (pEC50) (on Ba/F3-TPR-MET cells; in assay [1]) was not below 7.00 throughout.

Take `CCOc1ccncc1C(=O)Nc1cc(F)c(Oc2ccnc3cc(OCCCN(C)C)c(OC)cc23)cc1F` [Example 23, N-(4-((7-(3-(dimethylamino)propoxy)-6-methoxyquinolin-4-yl)oxy)-2,5-difluorophenyl)-4-ethoxypyridine-3-carboxamide]: the negative logarithm of the IC50 (pIC50) at MET and on MET D1228N was not below 7.00 throughout. The negative logarithm of the EC50 (pEC50) at Ba/F3-TPR-MET cells is 6.00 to 7.00; in assay [1], not below 7.00.

As to `CNCCOc1cc2nccc(Oc3c(F)cc(NC(=O)c4cnc(C)cc4OC4CC4)cc3F)c2cc1OC` [Example 117, 4-cyclopropoxy-N-[3,5-difluoro-4-({6-methoxy-7-[2-(methylamino)ethoxy]quinolin-4-yl}oxy)phenyl]-6-methylpyridine-3-carboxamide], the negative logarithm of the IC50 (pIC50) on MET and on MET D1228N was not below 7.00 throughout. Also, the negative-log EC50 (pEC50) (at Ba/F3-TPR-MET cells; in assay [1]) was not below 7.00 throughout.

Consider `CCOc1ccncc1C(=O)Nc1ccc(Oc2ccnc3cc(OCCNC)c(OC)cc23)c(F)c1F` [Example 16, N-(2,3-difluoro-4-((6-methoxy-7-(2-(methylamino)ethoxy)quinolin-4-yl)oxy)phenyl)-4-ethoxypyridine-3-carboxamide], for which the pIC50 on MET and on MET D1228N was not below 7.00 in each case. Moreover, the negative logarithm of the EC50 (pEC50) (at Ba/F3-TPR-MET cells; in assay [1]) was 6.00 to 7.00 throughout.

As for `COc1ccncc1C(=O)Nc1cc(F)c(Oc2ccnc3cc(OCCO)ccc23)c(F)c1` [Example 41, N-(3,5-difluoro-4-((7-(2-hydroxyethoxy)quinolin-4-yl)oxy)phenyl)-4-methoxypyridine-3-carboxamide], the pIC50 on MET and on MET D1228N was not below 7.00 each time. The negative-log EC50 (pEC50) on Ba/F3-TPR-MET cells is 6.00 to 7.00; in assay [1], not below 7.00.

Turning to `COc1cc2nccc(Oc3c(F)cc(NC(=O)c4cnccc4OC)cc3F)c2cn1` [Example 36, N-{3,5-difluoro-4-[(7-methoxy-1,6-naphthyridin-4-yl)oxy]phenyl}-4-methoxypyridine-3-carboxamide], the pIC50 at MET and on MET D1228N was not below 7.00 throughout. Also, the negative-log EC50 (pEC50) (on Ba/F3-TPR-MET cells; in assay [1]) was 6.00 to 7.00 in each case.

For `CNCCOc1cc2nccc(Oc3c(F)cc(NC(=O)c4cnc(F)cc4OC)cc3F)c2cc1OC` [Example 44, N-(3,5-difluoro-4-((6-methoxy-7-(2-(methylamino)ethoxy)quinolin-4-yl)oxy)phenyl)-6-fluoro-4-methoxypyridine-3-carboxamide], the negative logarithm of the IC50 (pIC50) at MET and on MET D1228N was not below 7.00 in each case. For the same compound, the negative-log EC50 (pEC50) (on Ba/F3-TPR-MET cells; in assay [1]) was 6.00 to 7.00 each time.

Consider `COCCOc1cc2nccc(Oc3c(F)cc(NC(=O)c4cnccc4OC4CC4)cc3F)c2nc1OC` [Example 136, 4-cyclopropoxy-N-(3,5-difluoro-4-{[6-methoxy-7-(2-methoxyethoxy)-1,5-naphthyridin-4-yl]oxy}phenyl)pyridine-3-carboxamide], for which the negative-log IC50 (pIC50) at MET and at MET D1228N was not below 7.00 throughout. Besides, the pEC50 (at Ba/F3-TPR-MET cells; in assay [1]) was not below 7.00 throughout.

With `CNCCCOc1cc2nccc(Oc3c(F)cc(NC(=O)c4c(OC)ccnc4F)cc3F)c2cc1OC` [Example 20, N-(3,5-difluoro-4-((6-methoxy-7-(3-(methylamino)propoxy)quinolin-4-yl)oxy)phenyl)-2-fluoro-4-methoxypyridine-3-carboxamide], the negative logarithm of the IC50 (pIC50) at MET and on MET D1228N was not below 7.00 each time. The negative-log EC50 (pEC50) (at Ba/F3-TPR-MET cells; in assay [1]) was not below 7.00 throughout.

As for `CNCCOc1ccc2c(Oc3c(F)cc(NC(=O)c4cnc(C)cc4OC4CC4)cc3F)ccnc2c1` [Example 115, 4-cyclopropoxy-N-(3,5-difluoro-4-((7-(2-(methylamino)ethoxy)quinolin-4-yl)oxy)phenyl)-6-methylpyridine-3-carboxamide], the negative logarithm of the IC50 (pIC50) on MET and at MET D1228N was not below 7.00 each time. For the same compound, the pEC50 (on Ba/F3-TPR-MET cells; in assay [1]) was not below 7.00 each time.

Take `COc1cc2c(Oc3c(F)cc(NC(=O)c4cnccc4OC4CC4)cc3F)ccnc2cc1OC1CNC1` [Example 74, N-(4-{[7-(azetidin-3-yloxy)-6-methoxyquinolin-4-yl]oxy}-3,5-difluorophenyl)-4-cyclopropoxypyridine-3-carboxamide]: the negative logarithm of the IC50 (pIC50) at MET and at MET D1228N was not below 7.00 throughout. The pEC50 (at Ba/F3-TPR-MET cells; in assay [1]) was 6.00 to 7.00 in each case.

As for `CNCCOc1cc2nccc(Oc3c(F)cc(NC(=O)c4ncccc4OC4CC4)cc3F)c2cc1OC` [Example 77, 3-cyclopropoxy-N-[3,5-difluoro-4-({6-methoxy-7-[2-(methylamino)ethoxy]quinolin-4-yl}oxy)phenyl]pyridine-2-carboxamide], the pIC50 on MET and at MET D1228N was not below 7.00 in each case. In addition, the negative-log EC50 (pEC50) (at Ba/F3-TPR-MET cells; in assay [1]) was not below 7.00 each time.

Consider `COc1cc2nccc(Oc3c(F)cc(NC(=O)c4cnccc4OC4CC4)cc3F)c2cc1OC` [Example 91, 4-cyclopropoxy-N-{4-[(6,7-dimethoxyquinolin-4-yl)oxy]-3,5-difluorophenyl}pyridine-3-carboxamide], for which the pIC50 at MET and at MET D1228N was not below 7.00 each time. Also, the pEC50 (on Ba/F3-TPR-MET cells; in assay [1]) was not below 7.00 each time.

As to `COc1cc2nccc(Oc3c(F)cc(NC(=O)c4cnccc4OC)c(F)c3F)c2cc1O[C@@H](C)CO` [Example 133, (S)-4-methoxy-N-(2,3,5-trifluoro-4-((6-((1-hydroxypropan-2-yl)oxy)-7-methoxyquinolin-4-yl)oxy)phenyl)nicotinamide], the pIC50 on MET and at MET D1228N was not below 7.00 in each case. In addition, the pEC50 (at Ba/F3-TPR-MET cells; in assay [1]) was not below 7.00 throughout.

For `CNCCOc1ccc2c(Oc3c(F)cc(NC(=O)c4ncccc4OC4CC4)cc3F)ccnc2c1` [Example 80, 3-cyclopropoxy-N-[3,5-difluoro-4-({7-[2-(methylamino)ethoxy]quinolin-4-yl}oxy)phenyl]pyridine-2-carboxamide], the pIC50 at MET and at MET D1228N was not below 7.00 each time. Besides, the negative-log EC50 (pEC50) at Ba/F3-TPR-MET cells was 6.00 to 7.00; in assay [1] it was not below 7.00.

On to `CNCCOc1ccc2c(Oc3c(F)cc(NC(=O)c4cccnc4OC4CC4)cc3F)ccnc2c1` [Example 79, 2-cyclopropoxy-N-[3,5-difluoro-4-({7-[2-(methylamino)ethoxy]quinolin-4-yl}oxy)phenyl]pyridine-3-carboxamide], for which the pIC50 on MET and at MET D1228N was not below 7.00 in each case. Besides, the negative-log EC50 (pEC50) (on Ba/F3-TPR-MET cells; in assay [1]) was 6.00 to 7.00 throughout.
